Test results from patent publication US12038433B2, “Methods and apparatus for high-throughput screening for testing permeability and retention of compounds across biological barriers” (Board of Regents, The University of Texas System, priority 2019, dated 2024).

How the values were obtained:
[1] = 96-well plate permeation study of doxycycline, skin measured with mass spec pen; type: in vitro ADME; conditions: 24 hours, different concentrations applied
Protocol: A permeation study was done using the 96-well plates screening method over a course of 24 hours. Doxycycline at different concentrations was used as a model drug. After 24 hours, the receptor fluid was removed, and the plates were disassembled. The mass spec pen (described by Zhang et al. and Sans et al.) was used to measure the amount of doxycycline on the top layers of the skin (epidermis side) and on the bottom layers of the skin (dermis side) by flipping the skin upside down (26, 27).

[2] = not tape-stripped; cited from earlier work
[3] = Skin retention analysis of SRB by two-photon-induced fluorescence imaging (FC vs HTS); type: in vitro ADME, human; conditions: surface down to 150 μm, after 8 h (FIG. 8)
Text: A two-photon-induced fluorescence imaging was used to determine the retention of SRB in the skin using a Prairie Technologies Ultimalntravital 2PA confocal microscope system (Park et al., 2008; Denk et al., 1990). The microscope objective was an Olympus® 10×, 0.30 NA, UMPlanFL N water immersion lens. Two-photon laser excitation was provided by a Spectra-Physics Tsunami® Ti:Sapphire laser with a τP=150 fs and P=108 mW. The laser was tuned to 1000 nm, since SRB excites at 550 nm and no skin autofluorescence is observed at this wavelength. Four fluorescence channels were detected simultaneously during imaging. The photomultiplier tube (PMT) bias voltages for each channel were set to 650 V for channel 1, 650 V for channel 2 (where SRB is detected), 800 V for channel 3 (where we can measure the autofluorescence of the skin), and 800 V for channel 4. Skin autofluorescence or second harmonic generation of collagen were detected in channels 3 and 4, respectively (Roberts et al., 2011). The fluorescence emission of SRB was recorded in channel 2 (λ=595±35 nm) since the wavelength of emission for SRB is 590 nm. Skin images were recorded above the surface of the skin and the maximum fluorescence intensity was considered to be the top layer or surface of the skin since excess of formulation was still present at the top of the skin at the end of the permeation study (8 h). […]

[4] = HTS formulation screening, retention of SRB in skin layers by 2 photon microscopy (3x2x3 full factorial design); type: in vitro ADME, human
Protocol: (§1) Two bottomless 96-well plates from Greiner bio-one were used.
(§2) The receptor plate was sealed with an adhesive film and overfilled with PBS (pH=7.4).
(§3) An 8×9 cm of skin tissue was placed on top of the receptor plate, dermis side in contact with the receptor fluid and stratum corneum up. The donor plate was placed on top of the skin. A 4 kg weight was placed on top and nuts were attached to the plate.
(§4) This sandwich was incubated for 1 hour at 32 deg C. and 75 rpm. After 1 hour, the formulations prepared in Table 1 and containing 0.5 mg/ml of SRB as a model hydrophilic drug were applied in triplicate to the donor wells.
(§5) The receptor compartment was analyzed by fluorescence using a plate reader and the skin was analyzed using 2 photon microscopy, the same way as described in Example 4. Images were collected at 256×256 pixels and 223.78 μm×223.78 μm. The z-axis profile was obtained by acquiring images at every 10 μm down the skin, up to 200 μm. The detailed 2-photon analysis utilized in this study took approximately 2 h (around a minute to 2 min for each well).
A 3×2×3 full factorial design was used to design the experiment and statistically analyze the differences in permeation and retention of the formulations applied in the skin.

[5] = Feasibility in vitro permeation study using squared and flat 384-well plates; type: in vitro ADME; conditions: 8 h, between the 0.5 mg/ml SRB and the 0.05 mg/ml SRB applied, lateral diffusion present
Protocol: Feasibility studies were conducted using squared and flat 384-well plates with no ridges or projected wells. The plates were assembled the same way as presented in Example 4. […] […] […] Samples were taken after 8 h and measured using fluorescence in a plate reader.

[6] = Permeation of SRB across tape-stripped skin, 96-well HTS compared with Franz cells, receptor fluid fluorescence; type: in vitro ADME, human; conditions: SRB 0.5 mg/ml, 8 h, 32° C., p-value >0.05 (FIG. 7)
Text: “The 96-well plates, with and without bottom, were modified by inserting 2 symmetric and parallel holes in each side of the plate using a drill. The holes were made in order to attach the plates together as a sandwich. The skin was tape-stripped 15 times, rubbing with a thumb three times before each strip (in the same manner as for the Franz cells). Tape-stripping was necessary to allow for drug permeation across the skin and direct quantification in the receptor compartment. […] The receptor fluid analysis was needed to compare permeability of SRB between methods (FC and HTS).”
“The 96-well plate with the bottom was used as the receptor compartment. The volume of each well is 380 μL and the area of diffusion is 0.38 cm^2. The receptor compartment was overfilled with degassed PBS (pH=7.4) to avoid the formation of any bubbles that would hinder drug permeation. […]
The plate was incubated at 32° C. for 1 h. […] After 8 h, the plates were disassembled and the receptor plate was analyzed using a spectrophotometer (Infinite M200 microplate reader, TECAN US Inc, NC, USA) for the quantification of fluorescence intensity (λexcitation=550 nm and λemission=590 nm). Standard solutions of SRB in PBS (pH=7.4) in the range of 500-0.03 μg/ml were prepared and the fluorescence intensity was measured to obtain the calibration curve. […]

[7] = HTS formulation screening, permeability of SRB across the skin into the receptor fluid (plate reader fluorescence); type: in vitro ADME, human; conditions: not statistically significant (FIG. 10 E)
Protocol: as §1, §2, §3, §4, §5

SMILES	permeation, amount on top (epidermis side) and bottom (dermis side) layers of the skin [1]	permeation across intact skin [2]	depth profile/Z-axis profile, relative change in fluorescence intensity over every 5 μm depth in the skin, FC vs HTS [3]	amount of SRB inside the skin ([4]; 5% and 2.5% surfactant concentration compared to no surfactant, post hoc analysis)	amount of the model drug in the skin layers ([4]; DMSO alone compared to 50:50 mixture of DMSO:Propylene glycol)	amount of SRB into the skin ([4]; DMSO compared to Propylene glycol alone, only at lower depths (100-150 micrometers))	amount of drug inside the skin ([4]; OA (oleic acid) in the formulation, PG solvent (FIG. 10 A, B))	amount of SRB inside the skin ([4]; increasing the concentration of Tween 80, PG solvent (FIG. 10 C, D))	Statistically significant variables on the amount of SRB retained ([4]; skin depth 0 μm, solvent ratio factor)	Statistically significant variables on the amount of SRB retained ([4]; skin depth 0 μm, surfactant concentration factor)	Statistically significant variables on the amount of SRB retained ([4]; skin depth 20 μm, solvent ratio factor)	Statistically significant variables on the amount of SRB retained ([4]; skin depth 20 μm, surfactant concentration factor)	Statistically significant variables on the amount of SRB retained ([4]; skin depth 100 μm, solvent ratio factor)	Statistically significant variables on the amount of SRB retained ([4]; skin depth 100 μm, surfactant concentration factor)	Statistically significant variables on the amount of SRB retained ([4]; skin depth 150 μm)	permeability of SRB across the skin [5]	permeation and distribution of the drug, Franz cells (FC) vs HTS [6]	amount of drug across the skin, into the receptor solution ([7]; OA (oleic acid) in the formulation)	amount of SRB across the skin ([7]; increasing the concentration of Tween 80)
C[C@H]1c2cccc(O)c2C(=O)C2=C(O)[C@]3(O)C(=O)C(C(N)=O)=C(O)[C@@H](N(C)C)[C@@H]3[C@@H](O)[C@@H]21 [Doxycycline]	Changes in permeation were detected	–	–	–	–	–	–	–	–	–	–	–	–	–	–	–	–	–	–
CCN(CC)c1ccc2c(-c3ccc(S(=O)(=O)O)cc3S(=O)(=O)[O-])c3ccc(=[N+](CC)CC)cc-3oc2c1 [SRB, Sulforhodamine B]	–	unable to permeate intact skin	similar	increases the amount of SRB inside the skin	enhances the amount of the model drug in all the skin layers	significantly enhance the amount of SRB into the skin	increased the amount of drug inside the skin	increased the amount of SRB inside the skin	Solvent ratio (*)	Surfactant concentration (**)	Solvent ratio (**)	Surfactant concentration (*)	Solvent ratio (**)	Surfactant concentration (*)	Solvent ratio (**)	changed	almost identical	also across the skin	not across the skin
